From patent publication US9102614B2, “Naphth-2-ylacetic acid derivatives to treat AIDS” (Gilead Sciences, Inc., priority 2010, dated 2015)

The compounds below were run on HIV-IIIb (assay: Test A: Antiviral Assays in MT4 Cells). Conditions: Human immunodeficiency virus 1, IIIB, MT4, 120 h, MT-4 cells infected with HIV-IIIb (0.004 m.o.i.), 5 days of incubation, CellTiter-Glo chemiluminescence readout; read-out: EC50.
Format: cell-based
Method: Test A: Antiviral Assays in MT4 Cells
For the antiviral assay utilizing MT-4 cells, 0.4 μL of […] test concentration of 3-fold serially diluted compound in DMSO was added to 40 μL of cell growth medium (RPMI 1640, 10% FBS, 1% penicillin/Streptomycin, 1% L-Glutamine, 1% HEPES) in each well of 384-well assay plates (10 concentrations) in quadruplicate.
1 mL aliquots of 2×10e6 MT-4 cells are pre-infected for 1 and 3 hrs respectively, @37° C. with 25 μL (MT4) or of either cell growth medium (mock-infected) or a fresh 1:250 dilution of an HIV-IIIb concentrated ABI stock (0.004 m.o.i. for MT4 cells). Infected and uninfected cells are diluted in cell growth medium and 35 uL of 2000 (for MT4) cells is added to each well of the assay plates.
Assay plates were then incubated in a 37° C. incubator. After 5 days of incubation, 25 μl of 2× concentrated CellTiter-Glo™ Reagent (catalog #G7573, Promega Biosciences, Inc., Madison, Wis.) was added to each well of the assay plate. Cell lysis was carried out by incubating at room temperature for 2-3 min and then chemiluminescence was read using the Envision reader (PerkinElmer).

| SMILES | EC50 [nM] |
| --- | --- |
| Cc1cc2ccc(C#CC3(O)CCCCC3)cc2c(-c2ccc(Cl)cc2)c1C(OC(C)(C)C)C(=O)O (stereo not shown) [Compound 83, 2-tert-Butoxy-2-(1-(4-chlorophenyl)-7-((1-hydroxycyclohexyl)ethynyl)-3-methylnaphthalen-2-yl)acetic acid] | 78 |
| Cc1cc2cc(-c3ccncc3)ccc2c(-c2ccc(Cl)cc2)c1[C@H](OC(C)(C)C)C(=O)O [Compound 53, (S)-2-tert-Butoxy-2-(1-(4-chlorophenyl)-3-methyl-6-(pyridin-4-yl)naphthalen-2-yl)acetic acid] | 120 |
| CCc1cc2cc(C)c([C@H](OC(C)(C)C)C(=O)O)c(-c3ccc4c5c(ccnc35)CCO4)c2cc1F (atropisomer, axis not shown) [Compound 165] | 53000 |
| CCc1cc2ccccc2c(-c2ccc(Cl)cc2)c1[C@H](OC(C)(C)C)C(=O)O [Compound 29B, (S)-2-tert-butoxy-2-(1-(4-chlorophenyl)-3-ethylnaphthalen-2-yl)acetic acid] | 500 |
| Cc1c(C(OC(C)(C)C)C(=O)O)c(-c2ccc(Cl)cc2)c2ccccc2c1-c1cnc(N)nc1 (stereo not shown) [Compound 145, 2-(4-(2-Aminopyrimidin-5-yl)-1-(4-chlorophenyl)-3-methylnaphthalen-2-yl)-2-tert-butoxyacetic acid] | 50 |
| CC(C)(C)O[C@H](C(=O)O)c1c(COc2cccnc2)cc2ccccc2c1-c1ccc(Cl)cc1 [Compound 25, (S)-2-tert-Butoxy-2-(1-(4-chlorophenyl)-3-((pyridin-3-yloxy)methyl)naphthalen-2-yl)acetic acid] | 26000 |
| Cc1c(C(OC(C)(C)C)C(=O)O)c(-c2ccc(Cl)cc2)c2ccccc2c1-c1ccc(Cl)cc1 (stereo not shown) [Compound 140, 2-(1,4-Bis(4-chlorophenyl)-3-methylnaphthalen-2-yl)-2-tert-butoxyacetic acid] | 1600 |
| CC(C)(C)O[C@H](C(=O)O)c1c(COc2cncnc2)cc2ccccc2c1-c1ccc(Cl)cc1 [Compound 26, (S)-2-tert-Butoxy-2-(1-(4-chlorophenyl)-3-((pyrimidin-5-yloxy)methyl)naphthalen-2-yl)acetic acid] | 840 |
| Cc1cc2c(-c3cncnc3)cc(F)cc2c(-c2ccc3c4c(ccnc24)CCO3)c1[C@H](OC(C)(C)C)C(=O)O (atropisomer, axis not shown) [Compound 153] | 11000 |
| CC(C)(C)O[C@H](C(=O)O)c1c(CN2CCOCC2)cc2ccccc2c1-c1ccc(Cl)cc1 [Compound 27, (S)-2-tert-Butoxy-2-(1-(4-chlorophenyl)-3-(morpholinomethyl)naphthalen-2-yl)acetic acid] | 3500 |
| Cc1ccc2c(-c3ccc(Cl)cc3)c(C(OC(C)(C)C)C(=O)O)c(C)cc2c1 (stereo not shown) [Compound 58, 2-tert-Butoxy-2-(1-(4-chlorophenyl)-3,6-dimethylnaphthalen-2-yl)acetic acid] | 42 |
| Cc1c(C(OC(C)(C)C)C(=O)O)c(-c2ccc(Cl)cc2)c2ccccc2c1CO (stereo not shown) [Compound 135, 2-tert-Butoxy-2-(1-(4-chlorophenyl)-4-(hydroxymethyl)-3-methylnaphthalen-2-yl)acetic acid] | 45 |
| Cc1cc2c(Cl)cccc2c(-c2ccc(Cl)cc2)c1C(OC(C)(C)C)C(=O)O (stereo not shown) [Compound 45, 2-tert-Butoxy-2-(5-chloro-1-(4-chlorophenyl)-3-methylnaphthalen-2-yl)acetic acid] | 1800 |
| Cc1c([C@@H](OC(C)(C)C)C(=O)O)c(-c2ccc(Cl)cc2)c2ccccc2c1Br [Compound 150A, (R)-2-(4-Bromo-1-(4-chlorophenyl)-3-methylnaphthalen-2-yl)-2-tert-butoxyacetic acid] | 29200 |
| CN(C)Cc1cc2ccccc2c(-c2ccc(Cl)cc2)c1[C@H](OC(C)(C)C)C(=O)O [Compound 24, (S)-2-tert-Butoxy-2-(1-(4-chlorophenyl)-3-(dimethylaminomethyl)naphthalen-2-yl)acetic acid] | 29000 |
| Cc1cc2ccccc2c(-c2ccc3c4c2NCCC4CCO3)c1[C@H](OC(C)(C)C)C(=O)O (stereo partly drawn) [Compound 20, (2S)-2-tert-Butoxy-2-(1-((7R)-2,3,3a,4,5,6-hexahydropyrano[4,3,2de]quinolin-7-yl)-3-methylnaphthalen-2-yl)acetic acid] | 93 |

| SMILES | EC50 [nM] |
| --- | --- |
| Cc1cc2ccc(CCC(C)(C)O)cc2c(-c2ccc(Cl)cc2)c1C(OC(C)(C)C)C(=O)O (stereo not shown) [Compound 89, 2-tert-Butoxy-2-(1-(4-chlorophenyl)-7-(3-hydroxy-3-methylbutyl)-3-methylnaphthalen-2-yl)acetic acid] | 280 |
| Cc1cc2ccccc2c(C2=CCC3(CC2)CC3)c1[C@H](OC(C)(C)C)C(=O)O [Compound 15, (S)-2-tert-Butoxy-2-(3-methyl-1-(spiro[2.5]oct-5-en-6-yl)naphthalen-2-yl)acetic acid] | 15 |
| Cc1cc2cc(-c3cncnc3)ccc2c(-c2ccc(Cl)cc2)c1[C@H](OC(C)(C)C)C(=O)O [Compound 55, (S)-2-tert-Butoxy-2-(1-(4-chlorophenyl)-3-methyl-6-(pyrimidin-5-yl)naphthalen-2-yl)acetic acid] | 54 |
| C=Cc1ccc2cc(C)c(C(OC(C)(C)C)C(=O)O)c(-c3ccc(Cl)cc3)c2c1 (stereo not shown) [Compound 76, 2-tert-Butoxy-2-(1-(4-chlorophenyl)-3-methyl-7-vinylnaphthalen-2-yl)acetic acid] | 930 |
| Cc1c(C(OC(C)(C)C)C(=O)O)c(-c2ccc(Cl)cc2)c2ccccc2c1-c1cccnc1 (stereo not shown) [Compound 138, 2-tert-butoxy-2-(1-(4-chlorophenyl)-3-methyl-4-(pyridin-3-yl)naphthalen-2-yl)acetic acid] | 40 |
| Cc1c(C(OC(C)(C)C)C(=O)O)c(-c2ccc(Cl)cc2)c2ccccc2c1-c1ccc(N)nc1 (stereo not shown) [Compound 143, 2-(4-(6-Aminopyridin-3-yl)-1-(4-chlorophenyl)-3-methylnaphthalen-2-yl)-2-tert-butoxyacetic acid] | 56 |
| Cc1cc2c(F)cccc2c(-c2ccc(Cl)cc2)c1C(OC(C)(C)C)C(=O)O (stereo not shown) [Compound 46, 2-tert-Butoxy-2-(1-(4-chlorophenyl)-5-fluoro-3-methylnaphthalen-2-yl)acetic acid] | 1400 |
| Cc1cc2ccc(C#CC3CC3)cc2c(-c2ccc(Cl)cc2)c1C(OC(C)(C)C)C(=O)O (stereo not shown) [Compound 75, 2-tert-Butoxy-2-(1-(4-chlorophenyl)-7-(cyclopropylethynyl)-3-methylnaphthalen-2-yl)acetic acid] | 980 |
| Cc1c(C(OC(C)(C)C)C(=O)O)c(-c2ccc(Cl)cc2)c2ccccc2c1-c1ccccc1 (stereo not shown) [Compound 136, 2-tert-Butoxy-2-(1-(4-chlorophenyl)-3-methyl-4-phenylnaphthalen-2-yl)acetic acid] | 340 |
| COc1ccc(Cc2c(OC)ccc3c(-c4ccc(Cl)cc4)c(C(OC(C)(C)C)C(=O)O)c(C)cc23)cc1 (stereo not shown) [Compound 49, 2-tert-Butoxy-2-(1-(4-chlorophenyl)-6-methoxy-5-(4-methoxybenzyl)-3-methylnaphthalen-2-yl)acetic acid] | 650 |
| Cc1cc2ccccc2c(C2=CCCC2)c1[C@H](OC(C)(C)C)C(=O)O [Compound 12, (S)-2-tert-Butoxy-2-(1-cyclopentenyl-3-methylnaphthalen-2-yl)acetic acid] | 110 |
| Cc1cc2ccccc2c(C2=CCC(C)CC2)c1[C@H](OC(C)(C)C)C(=O)O (stereo partly drawn) [Compound 13, (2S)-2-tert-Butoxy-2-(3-methyl-1-(4-methylcyclohex-1-enyl)naphthalen-2-yl)acetic acid] | 10 |
| Cc1cc2cc(C#N)c(F)cc2c(-c2ccc3c4c(ccnc24)CCO3)c1[C@H](OC(C)(C)C)C(=O)O (atropisomer, axis not shown) [Compound 169] | 18000 |
| Cc1cc2cc(C(C)C)c(F)cc2c(-c2ccc3c4c(ccnc24)CCO3)c1[C@H](OC(C)(C)C)C(=O)O (atropisomer, axis not shown) [Compound 167] | 29000 |
| Cc1cc2ccc(C#CC(C)(C)O)cc2c(-c2ccc(Cl)cc2)c1[C@H](OC(C)(C)C)C(=O)O [Compound 99, (S)-2-tert-Butoxy-2-(1-(4-chlorophenyl)-7-(3-hydroxy-3-methylbut-1-ynyl)-3-methylnaphthalen-2-yl)acetic acid] | 107 |

Same assay, conditions: MT-4 cells infected with HIV-IIIb (0.004 m.o.i.), 5 days of incubation, CellTiter-Glo chemiluminescence readout; read-out: EC50

| SMILES | EC50 [nM] |
| --- | --- |
| Cc1cc2ccc(Cl)cc2c(-c2ccc3c4c(ccnc24)CCO3)c1C(OC(C)(C)C)C(=O)O (racemic) [Compound 124, (±)-(S)-2-tert-butoxy-2-((R)-7-chloro-1-(2,3-dihydropyrano[4,3,2-de]quinolin-7-yl)-3-methylnaphthalen-2-yl)acetic acid] | 150 |
| Cc1cc2c(F)c(C)ccc2c(-c2ccc3c4c(ccnc24)CCO3)c1[C@H](OC(C)(C)C)C(=O)O [Compound 119, (S)-2-tert-Butoxy-2-((R)-1-(2,3-dihydropyrano[4,3,2-de]quinolin-7-yl)-5-fluoro-3,6-dimethylnaphthalen-2-yl)acetic acid] | 11 |
| Cc1cc2ccccc2c(-c2ccc(F)c3cccnc23)c1[C@H](OC(C)(C)C)C(=O)O [Compound 160] | 36000 |
